Reference: patent publication US8916599B2, “1H-benz imidazole-5-carboxamides as anti-inflammatory agents” (Orexo AB, priority 2008, dated 2014)

Target: T1, recombinant human mPGES-1 (Homo sapiens, UniProt O14684)
T1 construct: made in house; host or cells: Rosetta E. coli (microsomal/membrane fraction)
T1 sequence (O14684 1-152): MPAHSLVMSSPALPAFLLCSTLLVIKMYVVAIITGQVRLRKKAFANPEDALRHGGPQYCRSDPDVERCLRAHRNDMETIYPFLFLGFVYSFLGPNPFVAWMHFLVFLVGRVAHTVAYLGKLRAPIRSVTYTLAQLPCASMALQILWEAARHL
Test: mPGES-1 inhibition test (microsomes, PGH2 substrate, HTRF detection of PGE2)
Format: biochemical
Conditions: for inhibition at 10 µM: inhibition of mPGES-1 at 10 μM; for inhibition at 1 µM: inhibition of mPGES-1 at 1 μM (marked in cell)
In short: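 Microsomes from E. coli Rosetta expressing the enzyme, in 0.1 M KPi pH 7.4 with 2.5 mM GSH, were preincubated 25 min at room temperature with inhibitor in DMSO. PGH2 was added, the reaction stopped after one minute with acidified FeCl2, and PGE2 quantified by HTRF after 750-fold dilution.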

Structure (SMILES): O=C(Nc1cc(Cl)ccn1)c1ccc2c(c1)nc(Nc1c(Cl)cccc1Cl)n2CCO [Example 271, 2-(2,6-Dichloro-phenylamino)-1-(2-hydroxy-ethyl)-1H-benzimidazole-5-carboxylic acid (4-chloro-pyridin-2-yl)-amide]
- inhibition at 10 µM: 98%

Structure (SMILES): O=C(N[C@H]1CC[C@H](C(F)(F)F)CC1)c1cc2nc(Nc3c(F)ccc(F)c3Cl)[nH]c2cc1OCC(F)(F)F [Example 594, 2-(2-Chloro-3,6-difluoro-phenylamino)-N-(4-trans-trifluoromethyl-cyclohex-1-yl)-6-(2,2,2-trifluorethoxy)-1H-benzimidazole-5-carboxamide]
- inhibition at 10 µM: 94%

Structure (SMILES): CC(C)(C)CNC(=O)c1ccc2[nH]c(Nc3c(Cl)cccc3Cl)nc2c1 [Example 140, 2-(2,6-Dichloro-phenylamino)-1H-benzimidazole-5-carboxylic acid (2,2-dimethyl-propyl)-amide]
- inhibition at 10 µM: 80%

Structure (SMILES): CC(C)(C)[C@H]1CC[C@@H](NC(=O)c2cc3nc(Nc4c(F)cccc4Cl)[nH]c3cc2F)CC1 [Example 378, N-((1s,4s)-4-tert.-Butylcyclohexyl)-2-(2-chloro-6-fluorophenylamino)-6-fluoro-1H-benzimidazole-5-carboxamide]
- inhibition at 10 µM: 100%

Structure (SMILES): CCCCOc1cccc(NC(=O)c2ccc3c(c2)nc(Nc2c(Cl)cccc2Cl)n3C)n1 [Example 349, 2-(2,6-Dichloro-phenylamino)-1-methyl-1-H-benzimidazole-5-carboxylic acid (6-butoxy-pyridin-2-yl)-amide]
- inhibition at 10 µM: 100%

Structure (SMILES): O=C(Nc1ccc(C(F)(F)F)cn1)c1ccc2[nH]c(Nc3c(Cl)cccc3Cl)nc2c1 [Example 191, 2-(2,6-Dichloro-phenylamino)-1H-benzimidazole-5-carboxylic acid (5-trifluoromethyl-pyridin-2-yl)-amide]
- inhibition at 10 µM: 99%

Structure (SMILES): CC(C)Oc1cc2[nH]c(Nc3c(Cl)ccc(Cl)c3F)nc2cc1C(=O)NC1CCC(C)(C)CC1 [Example 618, 2-(3,6-Dichloro-2-fluoro-phenylamino)-6-isopropoxy-N-(4,4-dimethyl-cyclohex-1-yl)-1H-benzimidazole-5-carboxamide]
- inhibition at 10 µM: 91%

Structure (SMILES): O=C(Nc1ccc(F)c(Br)c1)c1ccc2[nH]c(Nc3c(Cl)cccc3Cl)nc2c1 [Example 70, 2-(2,6-Dichloro-phenylamino)-1H-benzimidazole-5-carboxylic acid (3-bromo-4-fluoro-phenyl)-amide]
- inhibition at 1 µM: 100%

Structure (SMILES): C[C@@H]1CCC(NC(=O)c2cc3nc(Nc4c(F)cccc4Cl)n(C)c3cc2F)C1 (stereo partly drawn) [Example 501, 2-(2-Chloro-6-fluorophenylamino)-6-fluoro-1-methyl-N-((3R)-3-methylcyclopentyl)-1H-benzimidazole-5-carboxamide]
- inhibition at 10 µM: 98%

Structure (SMILES): O=C(NC1CCCCC1C(F)(F)F)c1ccc2[nH]c(Nc3c(Cl)cccc3Cl)nc2c1 (centres unmarked) [Example 228, 2-(2,6-Dichloro-phenylamino)-1H-benzimidazole-5-carboxylic acid (2-trifluoromethyl-cyclohexyl)-amide]
- inhibition at 10 µM: 86%

Structure (SMILES): Cn1c(Nc2c(Cl)cccc2Cl)nc2cc(C(=O)NCc3ccncc3)ccc21 [Example 262, 2-(2,6-Dichloro-phenylamino)-1-methyl-1H-benzimidazole-5-carboxylic acid (2-pyridin-4-yl-methyl)-amide]
- inhibition at 10 µM: 61%

Structure (SMILES): O=C(Nc1ccc(Br)cc1)c1ccc2[nH]c(Nc3cccc(Cl)c3C(F)(F)F)nc2c1 [Example 333, 2-(3-Chloro-2-trifluoromethyl-phenylamino)-1H-benzimidazole-5-carboxylic acid (4-bromo-phenyl)-amide]
- inhibition at 10 µM: 94%

Structure (SMILES): O=C(N[C@H]1CC[C@H](C(F)(F)F)CC1)c1cc2nc(Nc3c(Cl)ccc(Cl)c3F)[nH]c2cc1OCC(F)(F)F [Example 592, 2-(3,6-Dichloro-2-fluoro-phenylamino)-N-(4-trans-trifluoromethyl-cyclohex-1-yl)-6-(2,2,2-trifluorethoxy)-1H-benzimidazole-5-carboxamide]
- inhibition at 10 µM: 97%

Structure (SMILES): O=C(NCc1ncccc1C(F)(F)F)c1ccc2[nH]c(Nc3c(Cl)cccc3Cl)nc2c1 [Example 220, 2-(2,6-Dichloro-phenylamino)-1H-benzimidazole-5-carboxylic acid (3-trifluoromethyl-pyridin-2-ylmethyl)-amide]
- inhibition at 10 µM: 96%

Structure (SMILES): CC1(C)CCC(NC(=O)c2ccc3[nH]c(Nc4c(Cl)cccc4Cl)nc3c2)CC1 [Example 64, 2-(2,6-Dichloro-phenylamino)-1H-benzimidazole-5-carboxylic acid (4,4-dimethyl-cyclohexyl)-amide]
- inhibition at 10 µM: 97%

Structure (SMILES): O=C(Nc1ncccc1C(F)(F)F)c1ccc2[nH]c(Nc3c(Cl)cccc3Cl)nc2c1 [Example 190, 2-(2,6-Dichloro-phenylamino)-1H-benzimidazole-5-carboxylic acid (3-trifluoromethyl-pyridin-2-yl)-amide]
- inhibition at 10 µM: 75%

Structure (SMILES): O=C(NC1CCC(F)(F)CC1)c1ccc2[nH]c(Nc3c(Cl)cccc3Cl)nc2c1 [Example 225, 2-(2,6-Dichloro-phenylamino)-1H-benzimidazole-5-carboxylic acid (4,4-difluoro-cyclohexyl)-amide]
- inhibition at 10 µM: 80%

Structure (SMILES): Cn1c(Nc2c(Cl)cccc2Cl)nc2cc(C(=O)NC3CCCC(C(F)(F)F)C3)ccc21 (centres unmarked) [Example 255, 2-(2,6-Dichloro-phenylamino)-1-methyl-1H-benzimidazole-5-carboxylic acid (3-trifluoromethyl-cyclohexyl)-amide]
- inhibition at 10 µM: 100%

Structure (SMILES): CCOc1cc2[nH]c(Nc3c(Cl)ccc(Cl)c3F)nc2cc1C(=O)Nc1cccc(Cl)c1 [Example 603, 2-(3,6-Dichloro-2-fluoro-phenylamino)-N-(3-chloro-phenyl)-6-ethoxy-1H-benzimidazole-5-carboxamide]
- inhibition at 10 µM: 90%

Structure (SMILES): COc1cc2c(cc1C(=O)NC1CCC3(CC1)CC3)nc(Nc1c(Cl)ccc(Cl)c1F)n2C [Example 645, 2-(3,6-Dichloro-2-fluoro-phenylamino)-6-methoxy-N-(spiro[2.5]oct-6-yl)-1-methyl-1H-benzimidazole-5-carboxamide]
- inhibition at 1 µM: 100%

Structure (SMILES): Cc1cc(C)nc(NC(=O)c2cc3nc(Nc4c(Cl)cccc4Cl)n(C)c3cc2F)c1 [Example 128, 2-(2,6-Dichloro-phenylamino)-6-fluoro-1-methyl-1H-benzimidazole-5-carboxylic acid (4,6-dimethyl-pyridin-2-yl)-amide]
- inhibition at 10 µM: 100%

Structure (SMILES): O=C(Nc1ccc(Br)cc1)c1cc2nc(Nc3c(Cl)cc(F)cc3Cl)[nH]c2cc1OCC(F)(F)F [Example 582, 2-(2,6-Dichloro-4-fluoro-phenylamino)-N-(4-bromo-phenyl)-6-(2,2,2-trifluorethoxy)-1H-benzimidazole-5-carboxamide]
- inhibition at 10 µM: 100%

Structure (SMILES): O=C(Nc1cc(Cl)ccn1)c1ccc2c(c1)nc(Nc1c(Cl)cccc1Cl)n2C1CNC1 [Example 207, 2-(2,6-Dichloro-phenylamino)-1-azetidin-3-yl-1H-benzimidazole-5-carboxylic acid (4-chloro-pyridin-2-yl)-amide(trifluoro-acetate)]
- inhibition at 10 µM: 97%

Structure (SMILES): Cn1c(Nc2c(Cl)cccc2Cl)nc2cc(C(=O)NC3CCC(F)(F)CC3)ccc21 [Example 249, 2-(2,6-Dichloro-phenylamino)-1-methyl-1H-benzimidazole-5-carboxylic acid (4,4-difluoro-cyclohexyl)-amide]
- inhibition at 10 µM: 96%

Structure (SMILES): CCc1ccc(C)nc1NC(=O)c1ccc2[nH]c(Nc3c(Cl)cccc3Cl)nc2c1 [Example 558, 2-(2,6-Dichlorophenylamino)-N-(3-ethyl-6-methylpyridin-2-yl)-1H-benzimidazole-5-carboxamide]
- inhibition at 10 µM: 77%

Structure (SMILES): N#Cc1cccc(NC(=O)c2ccc3[nH]c(Nc4c(Cl)cccc4Cl)nc3c2)c1 [Example 22, 2-(2,6-Dichloro-phenylamino)-1H-benzimidazole-5-carboxylic acid (3-cyano-phenyl)-amide]
- inhibition at 10 µM: 100%

Structure (SMILES): CC(C)Oc1cc2[nH]c(Nc3c(Cl)ccc(Cl)c3F)nc2cc1C(=O)Nc1cccc(Cl)c1 [Example 614, 2-(3,6-Dichloro-2-fluoro-phenylamino)-N-(3-chloro-phenyl)-6-isopropoxy-1H-benzimidazole-5-carboxamide]
- inhibition at 10 µM: 100%

Structure (SMILES): Cc1cc2[nH]c(Nc3c(Cl)cccc3Cl)nc2cc1C(=O)Nc1ccc(Cl)c(F)c1 [Example 145, 2-(2,6-Dichloro-phenylamino)-6-methyl-1H-benzimidazole-5-carboxylic acid (4-chloro-3-fluorophenyl)-amide]
- inhibition at 10 µM: 100%

Structure (SMILES): O=C(NC1CCC(F)(F)CC1)c1ccc2nc(Nc3c(Cl)cccc3Cl)[nH]c2c1 [Example 147, 2-(2,6-Dichloro-phenylamino)-3H-benzimidazole-5-carboxylic acid (4,4-difluoro-cyclohexyl)-amide]
- inhibition at 10 µM: 94%

Structure (SMILES): Cn1c(Nc2c(Cl)cccc2Cl)nc2cc(C(=O)Nc3cc(C(F)(F)F)ccn3)ccc21 [Example 203, 2-(2,6-Dichloro-phenylamino)-1-methyl-1H-benzimidazole-5-carboxylic acid (4-trifluoromethyl-pyridin-2-yl)-amide]
- inhibition at 10 µM: 100%

Structure (SMILES): Cc1ccc(Nc2nc3cc(C(=O)Nc4ccc(Br)cc4)ccc3n2C)c(Cl)c1 [Example 512, N-(4-Bromophenyl)-2-(2-chloro-4-methylphenylamino)-1-methyl-1H-benzimidazole-5-carboxamide]
- inhibition at 10 µM: 99%

Structure (SMILES): CNCCn1c(Nc2c(Cl)cccc2Cl)nc2cc(C(=O)Nc3cc(Cl)ccn3)ccc21 [Example 212, 2-(2,6-Dichloro-phenylamino)-1-(2-methylamino-ethyl)-1H-benzimidazole-5-carboxylic acid (4-chloro-pyridin-2-yl)-amide (trifluoroacetate)]
- inhibition at 10 µM: 100%
